Where a name gives a salt, the structure may show the parent alone. Read-outs that look alike come from different tables or passages of the source.
What was measured:
[1] = test system: SARS-CoV-2; format: cell-based; settings: for antiviral effect on CoV-2 replication: up to 20 μM; for virus-yield decrease, CoV-2: nontoxic single dose, 48 h
[2] = test system: HCoV-OC43; assay: microbe, parasite or virus in culture; format: cell-based; settings: for EC50: Betacoronavirus 1, OC43, Huh-7, read-out: Antiviral activity against HCoV-OC43 Huh7 cells EC50; for antiviral activity against HCoV-OC43: up to 20 μM
[3] = test system: Vero CCL-81 cells
[4] = in vitro; settings: African green monkey
[5] = test system: CoV-2 and HCoV-OC43; assay: sofosbuvir antiviral evaluation in additional cells; format: cell-based
[6] = in vitro; settings: human
[7] = in vitro; settings: human; remark: listed apart in the source
[8] = in vitro; settings: human; remark: listed apart in the source
[9] = test system: SARS-CoV-2; settings: read-out: reported EC50; Vero E6 cells; cited from earlier work
[10] = test system: COVID-19; settings: 1,063 hospitalized patients; placebo 15 days; P < 0.0001; cited from earlier work

| SMILES | EC50 [2] [µM] | CC50 [4] [µM] | antiviral effect on CoV-2 replication ([1]; Vero cells) | CC50 [6] [µM] | CC50 [7] [µM] | CC50 [8] [µM] | also measured |
| --- | --- | --- | --- | --- | --- | --- | --- |
| C[C@@]1(O)[C@H](O)[C@@H](CO)O[C@H]1n1ccc(N)nc1=O [Compound 1, 2′-C-methylcytidine] | 10 ± 0.7 | > 100 |  |  |  |  | selectivity index (SI) for SARS-CoV-2 ([1]; CC50/EC50, Vero cells): > 10; toxicity in Vero cells ([3]; up to 100 μM): no toxicity |
| C[C@@]1(O)[C@H](O)[C@@H](CO)O[C@H]1n1cc(F)c2c(N)ncnc21 [Compound 2, 7-deaza-7-fluoro-2′-C-methyladenosine] | 6.7 ± 1.1 | > 100 |  |  |  |  | selectivity index (SI) for SARS-CoV-2 [1]: > 10; toxicity in Vero cells [3]: no toxicity |
| CC(C)OC(=O)[C@H](C)N[P@](=O)(OC[C@H]1O[C@@H](n2ccc(=O)[nH]c2=O)[C@](C)(F)[C@@H]1O)Oc1ccccc1 [Compound 4, sofosbuvir] | > 20 | > 100 | no antiviral effect | > 100 | > 100 | > 100 | EC50 ([5]; Betacoronavirus 1, OC43, Calu-3, in Homo sapiens, read-out: EC50 in Calu3 cells): > 20 µM; EC50 ([5]; Betacoronavirus 1, OC43, RD, in Homo sapiens, read-out: EC50 in RD cells): > 20 µM; EC50 ([5]; Caco-2, read-out: EC50 in Caco-2 cells): > 20 µM |
| Nc1ccn([C@@H]2O[C@@](CO)(CCl)[C@@H](O)[C@H]2F)c(=O)n1 [Compound 5, ALS-8112] | > 20 | > 100 | did not have a marked effect |  |  |  |  |
| NC(=O)c1nc(F)c[nH]c1=O [Compound 8, favipiravir] | 6.8 | > 100 |  | > 100 | > 100 | > 100 |  |
| C=C1[C@H](CO)[C@@H](O)C[C@@H]1n1cnc2c(=O)[nH]c(N)nc21 [Compound 9, entecavir] | > 20 | > 100 |  |  |  |  |  |
| CCC(CC)COC(=O)[C@H](C)N[P@](=O)(OC[C@H]1O[C@@](C#N)(c2ccc3c(N)ncnn23)[C@H](O)[C@@H]1O)Oc1ccccc1 [Compound 10, remdesivir] | 0.04 ± 0.1 | > 100 |  |  |  |  | selectivity index (SI) for SARS-CoV-2 ([1]; CC50/EC50, Vero cells): > 100; virus-yield decrease, CoV-2 ([1]; Vero cells): > 90%; selectivity index (SI) for HCoV-OC43 ([2]; CC50/EC50, Huh-7 cells): 52; EC50 [9]: 1.85 µM; time to recovery [10]: 11 days |
| N#C[C@@]1(c2ccc3c(N)ncnn23)O[C@H](CO)[C@@H](O)[C@H]1O [Compound 11, GS-441524] | > 10 | > 100 |  | > 100 | > 100 | > 100 | selectivity index (SI) for SARS-CoV-2 ([1]; CC50/EC50, Vero cells): 12; virus-yield decrease, CoV-2 ([1]; Vero cells): > 90%; EC50 [9]: 0.47 µM |
| NC(=O)c1ncn([C@@H]2O[C@H](CO)[C@@H](O)[C@H]2O)n1 [Compound 12, ribavirin] | 20.6 | > 100 | did not exhibit a marked inhibitory effect |  |  |  | antiviral activity against HCoV-OC43 ([2]; Huh-7 cells): did not exhibit a marked inhibitory effect |
| Nc1ccn([C@@H]2CS[C@H](CO)O2)c(=O)n1 [Compound 13, lamivudine] | > 20 | > 100 | did not show any activity | > 100 | > 100 | > 100 | antiviral activity against HCoV-OC43 ([2]; Huh-7 cells): did not show any activity |
| Nc1nc(=O)n([C@@H]2CS[C@H](CO)O2)cc1F [Compound 14, emtricitabine] | > 20 | > 100 |  | > 100 | > 100 | > 100 |  |
| CC(C)OC(=O)[C@H](C)N[P@](=O)(CO[C@H](C)Cn1cnc2c(N)ncnc21)Oc1ccccc1 [Compound 15, tenofovir alafenamide] | > 20 | 36.4 |  |  |  |  |  |
| CC(C)OC(=O)OCOP(=O)(CO[C@H](C)Cn1cnc2c(N)ncnc21)OCOC(=O)OC(C)C [Compound 16, tenofovir disoproxil fumarate] | > 20 | > 100 | did not show any activity |  |  |  | antiviral activity against HCoV-OC43 ([2]; Huh-7 cells): did not show any activity |

Reference: paper PMC7927863 (Antimicrobial Agents and Chemotherapy, 2020)
